This test has as its target T1, His tagged recombinant human tissue transglutaminase (His6-rh-TG2) (Homo sapiens, UniProt P21980).
T1 construct: purchased Zedira T002
T1 sequence (P21980 1-687): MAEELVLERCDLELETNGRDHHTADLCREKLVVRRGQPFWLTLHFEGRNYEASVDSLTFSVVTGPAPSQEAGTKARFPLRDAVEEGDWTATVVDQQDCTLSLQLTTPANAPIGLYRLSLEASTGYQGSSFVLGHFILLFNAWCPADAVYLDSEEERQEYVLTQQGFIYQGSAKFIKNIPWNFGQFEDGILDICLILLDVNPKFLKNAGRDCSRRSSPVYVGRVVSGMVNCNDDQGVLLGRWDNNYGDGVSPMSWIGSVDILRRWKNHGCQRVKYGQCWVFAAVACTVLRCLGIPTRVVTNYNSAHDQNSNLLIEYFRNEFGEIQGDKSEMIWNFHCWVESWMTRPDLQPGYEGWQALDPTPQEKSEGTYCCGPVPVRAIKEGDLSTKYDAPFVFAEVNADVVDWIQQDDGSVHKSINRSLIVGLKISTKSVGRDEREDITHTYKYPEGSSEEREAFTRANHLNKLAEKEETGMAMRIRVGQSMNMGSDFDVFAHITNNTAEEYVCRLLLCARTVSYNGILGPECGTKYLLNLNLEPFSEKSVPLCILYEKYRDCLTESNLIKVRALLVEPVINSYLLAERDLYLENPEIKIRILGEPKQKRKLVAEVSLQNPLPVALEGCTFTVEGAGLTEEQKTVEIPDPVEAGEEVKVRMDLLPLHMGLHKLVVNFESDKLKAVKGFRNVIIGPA
Description: Inactivation of human tissue transglutaminase, fluorescence assay with Abz-APE(CAD-DNP)QEA-OH. Format: biochemical. Particulars: substrate Abz-APE(CAD-DNP)QEA-OH, 37° C., pH=7.5. Here is the method: General Method for Inactivation of Human Tissue Transglutaminase
250 μg lyophilized His tagged recombinant human tissue transglutaminase (His6-rh-TG2, Zedira product T002) are reconstituted by adding 150 μl water (resulting buffer 50 mM NaH2PO4, 150 mM NaCl, pH=8.0).
A 10 mM inhibitor stock solution in DMSO is prepared and is diluted with buffer (50 mM Tris-HCl, 10 mM CaCl2, 5 mM DTT, pH=7.5) each to the twentyfold of the concentration desired in the preparation (but at least 1/50 dilution resulting in a 2% DMSO concentration).
900 μl of an assay-solution consisting of 55.56 mM Tris, 11.11 mM CaCl2, 0.11% PEG8000, 5.56 mM DTT, 5.56 mM glycine methyl ester and 50 μM Abz-APE(CAD-DNP)QEA-OH, (Zedira product A102; patent No.: EP 1781807B1), pH=7.5 are added to a cuvette and heated in a measuring cell of a spectrophotometer to 37° C. 50 μl of the particular inhibitor solution are added to this solution (resulting in a concentration of less than 0.2% DMSO in the mixture).
7 μl of the transglutaminase solution reconstituted above are diluted with 51 μl buffer (50 mM Tris, 100 mM NaCl, 5 mM DTT, pH=7.5). 50 μl of this enzyme solution (10 μg His6-rhTG2) are added to the assay-solution containing the particular inhibitor concentration. It is incubated 5 min at 37° C. before measuring starts (λexc=313 nm and λem=418 nm, t=15 to 30 min).
The evaluation of the resulting enzyme activity is done using the slope of the straight line obtained by the increase in fluorescence.
To determine the non-inhibited enzyme activity, DMSO instead of inhibitor stock solution is used. IC50 values are determined by plotting the resulting enzyme activity against the logarithm of the inhibitor concentration. IC50 is defined as the concentration of inhibitor resulting in 50% of enzyme activity.
For the compound `CCOC(=O)/C=C/CC[C@H](NC(C)=O)C(=O)Nc1cccn(CC(=O)NCCC(C)(C)C)c1=O` [A39, (S,E)-Ethyl 6-acetamido-7-(1-(2-(3,3-dimethylbutylamino)-2-oxoethyl)-2-oxo-1,2-dihydropyridin-3-ylamino)-7-oxohept-2-enoate], the IC50 was 115 nM.

As for `CCOC(=O)/C=C/CC[C@H](NC(C)=O)C(=O)Nc1cccn(CC(=O)N[C@@H](CC(C)(C)C)C(=O)OC)c1=O` [A40, (S,E)-Ethyl 6-acetamido-7-(1-(2-((S)-1-methoxy-4,4-dimethyl-1-oxopentan-2-ylamino)-2-oxoethyl)-2-oxo-1,2-dihydropyridin-3-ylamino)-7-oxohept-2-enoate], the IC50 worked out at 131 nM. Regarding `CCOC(=O)/C=C/CC[C@H](NC(=O)CCC(=O)O)C(=O)Nc1cccn(CC(=O)N[C@@H](CC(C)(C)C)C(=O)OC)c1=O` [A41, 4-((S,E)-7-Ethoxy-1-(1-(2-((S)-1-methoxy-4,4-dimethyl-1-oxopentan-2-ylamino)-2-oxoethyl)-2-oxo-1,2-dihydropyridin-3-ylamino)-1,7-dioxohept-5-en-2-ylamino)-4-oxobutanoic acid], the IC50 was determined as 166 nM. Take `CCOC(=O)/C=C/CC[C@H](NC(=O)CCC(=O)O)C(=O)Nc1cccn(CC(=O)NCCC(CC)CC)c1=O` [A43, (S,E)-4-(7-Ethoxy-1-(1-(2-(3-ethylpentylamino)-2-oxoethyl)-2-oxo-1,2-dihydropyridin-3-ylamino)-1,7-dioxohept-5-en-2-ylamino)-4-oxobutanoic acid]: the concentration for half-maximal inhibition (IC50) stood at 145 nM. As to `CCOC(=O)/C=C/CC[C@H](NC(=O)CCC(=O)O)C(=O)Nc1cccn(CC(=O)NCc2ccccc2C(F)(F)F)c1=O` [A44, (S,E)-4-(7-Ethoxy-1,7-dioxo-1-(2-oxo-1-(2-oxo-2-(2-(trifluoromethyl)benzylamino)ethyl)-1,2-dihydropyridin-3-ylamino)hept-5-en-2-ylamino)-4-oxobutanoic acid], the IC50 was determined as 240 nM.

`CCOC(=O)/C=C/CC[C@H](NC(=O)CCC(=O)O)C(=O)Nc1cccn(CC(=O)N2CCC(C(F)(F)F)CC2)c1=O` [A45, (S,E)-4-(7-Ethoxy-1,7-dioxo-1-(2-oxo-1-(2-oxo-2-(4-(trifluoromethyl)piperidin-1-yl)ethyl)-1,2-dihydropyridin-3-ylamino)hept-5-en-2-ylamino)-4-oxobutanoic acid]: the IC50 turned out to be 1230 nM. In the case of `CCOC(=O)/C=C/CC[C@H](NC(C)=O)C(=O)Nc1cccn(CC(=O)NCCN2CCCC2)c1=O` [A46, (S,E)-Ethyl 6-acetamido-7-oxo-7-(2-oxo-1-(2-oxo-2-(2-(pyrrolidin-1-yl)ethylamino)ethyl)-1,2-dihydropyridin-3-ylamino)hept-2-enoate] it was 3300 nM; in that of `CCOC(=O)/C=C/CC[C@H](NC(=O)CCC(=O)O)C(=O)Nc1cccn(CC(=O)NCCc2cccs2)c1=O` [A47, (S,E)-4-(7-Ethoxy-1,7-dioxo-1-(2-oxo-1-(2-oxo-2-(2-(thiophen-2-yl)ethylamino)ethyl)-1,2-dihydropyridin-3-ylamino)hept-5-en-2-ylamino)-4-oxobutanoic acid], 480 nM; in that of `CCOC(=O)/C=C/CC[C@H](NC(C)=O)C(=O)Nc1cccn(CC(=O)NCC2CCN(CC)CC2)c1=O` [A48, (S,E)-Ethyl 6-acetamido-7-(1-(2-((1-ethylpiperidin-4-yl)methylamino)-2-oxoethyl)-2-oxo-1,2-dihydropyridin-3-ylamino)-7-oxohept-2-enoate], 1700 nM. To `CCOC(=O)/C=C/CC[C@H](NC(=O)CCC(=O)O)C(=O)Nc1cccn(CC(=O)NCCN2CCNC2=O)c1=O` [A49, (S,E)-4-(7-Ethoxy-1,7-dioxo-1-(2-oxo-1-(2-oxo-2-(2-(2-oxoimidazolidin-1-yl)ethylamino)ethyl)-1,2-dihydropyridin-3-ylamino)hept-5-en-2-ylamino)-4-oxobutanoic acid] belongs 1800 nM; to `CCOC(=O)/C=C/CC[C@H](NC(C)=O)C(=O)Nc1cccn(CC(=O)NCC(C)CC)c1=O` (stereo partly drawn) [A50, (6S,E)-Ethyl 6-acetamido-7-(1-(2-(2-methylbutylamino)-2-oxoethyl)-2-oxo-1,2-dihydropyridin-3-ylamino)-7-oxohept-2-enoate], 119 nM.

Consider `CCOC(=O)/C=C/CC[C@H](NC(=O)CCC(=O)O)C(=O)Nc1cccn(CC(=O)NCC(C)CC)c1=O` (stereo partly drawn) [A51, 4-((2S,E)-7-Ethoxy-1-(1-(2-(2-methylbutylamino)-2-oxoethyl)-2-oxo-1,2-dihydropyridin-3-ylamino)-1,7-dioxohept-5-en-2-ylamino)-4-oxobutanoic acid], for which the IC50 was found to be 166 nM. Turning to `CCOC(=O)/C=C/CC[C@H](NC(C)=O)C(=O)Nc1cccn(CC(=O)N2CCCC(C)C2)c1=O` (stereo partly drawn) [A52, (6S,E)-Ethyl 6-acetamido-7-(1-(2-(3-methylpiperidin-1-yl)-2-oxoethyl)-2-oxo-1,2-dihydropyridin-3-ylamino)-7-oxohept-2-enoate], the IC50 amounted to 700 nM. As to `CCOC(=O)/C=C/CC[C@H](NC(C)=O)C(=O)Nc1cccn(CC(=O)NCC(C)C)c1=O` [A54, (S,E)-Ethyl 6-acetamido-7-(1-(2-(isobutylamino)-2-oxoethyl)-2-oxo-1,2-dihydropyridin-3-ylamino)-7-oxohept-2-enoate], the IC50 worked out at 191 nM. As to `CCOC(=O)/C=C/CC[C@H](NC(C)=O)C(=O)Nc1cccn(CC(=O)NC(C)C(C)C)c1=O` (stereo partly drawn) [A55, (6S,E)-Ethyl 6-acetamido-7-(1-(2-(3-methylbutan-2-ylamino)-2-oxoethyl)-2-oxo-1,2-dihydropyridin-3-ylamino)-7-oxohept-2-enoate], the IC50 came to 153 nM. As for `CCOC(=O)/C=C/CC[C@H](NC(=O)CCNC(N)=O)C(=O)Nc1cccn(CC(=O)NCCC(C)C)c1=O` [A56, (S,E)-Ethyl 7-(1-(2-(isopentylamino)-2-oxoethyl)-2-oxo-1,2-dihydropyridin-3-ylamino)-7-oxo-6-(3-ureidopropanamido)hept-2-enoate], the IC50 was found to be 139 nM. Turning to `CCOC(=O)/C=C/CC[C@H](NC(C)=O)C(=O)Nc1cccn(CC(=O)N[C@H](C(=O)OC)C(C)C)c1=O` [A57, (S,E)-Ethyl 6-acetamido-7-(1-(2-((S)-1-methoxy-3-methyl-1-oxobutan-2-ylamino)-2-oxoethyl)-2-oxo-1,2-dihydropyridin-3-ylamino)-7-oxohept-2-enoate], the IC50 was 84 nM. In the case of `COC(=O)/C=C/CC[C@H](NC(C)=O)C(=O)Nc1cccn(CC(=O)N2CCCC(C(F)(F)F)C2)c1=O` (stereo partly drawn) [A66, (6S,E)-Methyl 6-acetamido-7-oxo-7-(2-oxo-1-(2-oxo-2-(3-(trifluoromethyl)piperidin-1-yl)ethyl)-1,2-dihydropyridin-3-ylamino)hept-2-enoate] it was 310 nM; in that of `CCC(CC)CNC(=O)Cn1cccc(NC(=O)[C@H](CC/C=C/C(=O)OC)NC(=O)c2cccnc2)c1=O` [A67, (S,E)-Methyl 7-(1-(2-(2-ethylbutylamino)-2-oxoethyl)-2-oxo-1,2-dihydropyridin-3-ylamino)-6-(nicotinamido)-7-oxohept-2-enoate], 55 nM. Turning to `CCC(CC)CNC(=O)Cn1cccc(NC(=O)[C@H](CC/C=C/C(=O)OC)NC(=O)C(C)N)c1=O` (stereo partly drawn) [A68, (6S,E)-Methyl 6-(2-aminopropanamido)-7-(1-(2-(2-ethylbutylamino)-2-oxoethyl)-2-oxo-1,2-dihydropyridin-3-ylamino)-7-oxohept-2-enoate 2,2,2-trifluoroacetate], the IC50 is 53 nM.

In the case of `CCC(CC)CNC(=O)Cn1cccc(NC(=O)[C@H](CC/C=C/C(=O)OC)NC(=O)CN)c1=O` [A69, (S,E)-Methyl 6-(2-aminoacetamido)-7-(1-(2-(2-ethybutylamino)-2-oxoethyl)-2-oxo-1,2-dihydropyridin-3-ylamino)-7-oxohept-2-enoate 2,2,2-trifluoroacetate], the IC50 was found to be 71 nM.

What is called IC50 is the concentration needed to halve the response being measured.

(Values after US9434763B2, “Derivatives of pyridinone as inhibitors for tissue transglutaminase” (ZEDIRA GMBH, priority 2012, dated 2016).)
